Reference: patent EP1005460B1, “PROSTAGLANDIN ENDOPEROXIDE H SYNTHASE BIOSYNTHESIS INHIBITORS” (ABBOTT LABORATORIES, priority 1997, dated 1999)
Like-named read-outs stand apart in the source and are kept apart here.

Columns and labels:
[1] = target: T1, Cox-1 (Homo sapiens, UniProt P23219); assay: U937 cell assay, Cox-1 activity by EIA; type: cell-based; set-up: host or cells: U937 cells; settings: U937 cells
Experimental: (§1) To compare the mean responses of the treatment groups, analysis of variance was applied. Percent inhibition values were determined by comparing the individual treatment mean values to the mean of the control group. Linear regression was used to estimate IC50's/ED50's in appropriate assays.
(§2) EIA reagents for prostaglandin determination were purchased from Perseptive Diagnostics, (Cambridge, MA). PGE2 levels in lavage fluids were determined after the samples were dried under nitrogen and reconstituted with assay buffer. PGE2 levels in enzyme assays or cell culture media were measured against standards prepared in the same milieu. The immunoassays were conducted as recommended by the manufacturer. The EIA was conducted in 96 well microtiter plates (Nunc Roskilde, Denmark) and optical density was measured using a microplate reader (Vmax, Molecular Devices Corp., Menlo Park, CA).
(§3) Human amnionic WISH cells were grown to 80% confluence in 48 well plates. Following removal of the growth medium and two washings with Gey's Balanced Salt Solution, 5 ng IL-1 β/ml (UBI, Lake Placid, NY) was added to the cells with or without test compound in DMSO (0.01% v/v) in Neuman-Tytell Serumless Medium (GIBCO, Grand Island, NY). Following an 18 hour incubation to allow for the maximal induction of PGHS-2, the conditioned medium was removed and assayed for PGE2 activity by EIA analysis as described above.
(§4) U937 (ATCC, Rockville, MD) cells were grown in a similar fashion to the WISH cells. After incubation, the conditioned medium was removed and assayed for Cox-1 activity by EIA analysis as described above. U937 values indicate percent inhibition at the particular micromolar dose level while parenthetical values indicate IC50 values. Wish cell values indicate Cox-2 pecent inhibition at the particular micromolar dose level.

[2] = system: prostaglandin biosynthesis; assay: Rat carrageenan pleural inflammation model (CIP); type: in vivo, Sprague-Dawley rats; settings: 10 milligrams per kilogram body weight, oral, 30 minutes before intrapleural carrageenan; lavage after four hours
Experimental: as §1, §2
Pleural inflammation was induced in male adrenalectomized Sprague-Dawley rats following the method of Vinegar et al., Fed. Proc. 1976, 35, 2447-2456. Animals were orally dosed with experimental compounds, in 0.2% HPMC, 30 minutes prior to the intrapleural injection of 2% lambda carrageenan (Sigma Chemical Co., St. Louis MO). Four hours later the animals were euthanized and the pleural cavities lavaged with ice cold saline. […] Eicosanoids were determined by EIA as described above. […]

[3] = target: T2, Cox-2 (Homo sapiens, UniProt P35354); assay: Recombinant human PGHS-2 (Cox-2) enzyme assay, PGE2 by EIA; type: biochemical; set-up: made in house; host or cells: baculovirus/Sf9 insect cells (microsomes); settings: microsomes, 60 min preincubation, 10 µM arachidonic acid; for IC50: read-out: RHUCX2 Cox-2 IC50 (parenthetical values); for inhibition at 0.1 µM: at 100 nM; for inhibition at 0.1 µM / inhibition at 1 µM: read-out: RHUCX2 Cox-2 percent inhibition; for inhibition at 1 µM: at 1000 nM
T2 sequence (P35354 18-604): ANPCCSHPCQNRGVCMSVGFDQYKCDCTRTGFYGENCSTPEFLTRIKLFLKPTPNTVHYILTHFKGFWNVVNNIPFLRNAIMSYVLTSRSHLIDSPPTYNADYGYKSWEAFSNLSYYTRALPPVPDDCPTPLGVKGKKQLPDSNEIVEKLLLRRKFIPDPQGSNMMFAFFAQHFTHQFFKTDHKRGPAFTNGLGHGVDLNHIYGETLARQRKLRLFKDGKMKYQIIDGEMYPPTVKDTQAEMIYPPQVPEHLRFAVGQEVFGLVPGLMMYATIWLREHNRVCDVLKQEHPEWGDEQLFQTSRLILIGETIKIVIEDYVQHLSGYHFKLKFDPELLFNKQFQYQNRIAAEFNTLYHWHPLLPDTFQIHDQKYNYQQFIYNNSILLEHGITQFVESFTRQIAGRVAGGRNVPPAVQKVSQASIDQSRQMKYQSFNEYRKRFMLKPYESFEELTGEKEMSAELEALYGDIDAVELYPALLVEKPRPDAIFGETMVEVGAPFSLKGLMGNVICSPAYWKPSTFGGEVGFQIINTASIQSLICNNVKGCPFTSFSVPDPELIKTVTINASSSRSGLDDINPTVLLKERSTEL
Experimental: as §1, §2
(§5) Inhibition of prostaglandin biosynthesis in vitro was evaluated using recombinant human Cox-1 (r-hu Cox1) and Cox-2 (r-hu Cox2) enzyme assays. […] The reaction was allowed to run for 2.5 minutes at room temperature prior to quenching with HCl and neutralization with NaOH. PGE2 production in the presence and absence of the drug was determined by EIA analysis. The EIA was conducted in 96 well microtiter plates (Nunc Roskilde, Denmark) and optical density was measured using a microplate reader (Vmax, Molecular Devices Corp., Menlo Park, CA). EIA reagents for prostaglandin determination were purchased from Perseptive Diagnostics (Cambridge, MA). PGE2 levels were measured against standards prepared in the same milieu. The immunoassays were conducted as recommended by the manufacturer. The compounds are designated by the Example Number. […] Values for Cox-2 inhibition that are parenthetical indicate IC50 values.

[4] = target: T1, Cox-1; assay: Recombinant human PGHS-1 (Cox-1) enzyme assay, PGE2 by EIA; type: biochemical; set-up: made in house; host or cells: baculovirus/Sf9 insect cells (microsomes); settings: microsomes, 60 min preincubation, 10 µM arachidonic acid, read-out: RHUCX1 Cox-1 percent inhibition
Experimental: as §1, §2, §5

[5] = target: T2, Cox-2; assay: IL-1β induced PGE2 production in WISH cells; type: cell-based; set-up: endogenous in cells; host or cells: human amnionic WISH cells induced with IL-1β
Experimental: as §1, §2, §3
as §4, with “Wish cell values indicate Cox-2 pecent inhibition at the particular micromolar dose level.” left out

[6] = U-937, read-out: U937 percent inhibition

T1 sequence (P23219 24-599): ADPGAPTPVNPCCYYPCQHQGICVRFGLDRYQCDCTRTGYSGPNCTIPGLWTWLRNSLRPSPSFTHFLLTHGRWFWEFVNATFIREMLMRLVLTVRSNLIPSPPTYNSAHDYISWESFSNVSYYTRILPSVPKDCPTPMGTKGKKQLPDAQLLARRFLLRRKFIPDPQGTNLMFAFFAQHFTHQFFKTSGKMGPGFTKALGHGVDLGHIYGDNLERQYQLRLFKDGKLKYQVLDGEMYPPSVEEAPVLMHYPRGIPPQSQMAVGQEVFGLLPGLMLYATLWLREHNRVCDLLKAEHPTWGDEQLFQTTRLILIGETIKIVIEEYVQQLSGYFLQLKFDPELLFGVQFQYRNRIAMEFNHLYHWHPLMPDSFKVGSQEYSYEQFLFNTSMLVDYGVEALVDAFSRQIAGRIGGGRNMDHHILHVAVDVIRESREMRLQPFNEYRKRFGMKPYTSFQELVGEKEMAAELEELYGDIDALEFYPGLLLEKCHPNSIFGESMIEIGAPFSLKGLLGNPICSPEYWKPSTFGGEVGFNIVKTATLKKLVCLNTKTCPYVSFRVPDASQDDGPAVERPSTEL

SMILES | IC50 [3] [nM] | inhibition at 100 µM [4] [%] | inhibition at 10 µM [1, 6] [%] | inhibition at 0.1 µM [3] [%] | also measured
CCCCn1nc(-c2ccc(F)cc2)c(-c2ccc(S(C)(=O)=O)cc2)cc1=O [Example 11, 2-(n-Butyl)-5-(4-methylsulfonylphenyl)-6-(4-fluorophenyl)-3(2H)-pyridazinone] |  | 19 |  | 51 | 
CC(c1ccc(F)cc1)n1nc(-c2ccc(F)cc2)c(-c2ccc(S(C)(=O)=O)cc2)cc1=O (stereo not drawn) [Example 12, 2-(4-Fluoro-α-methylbenzyl)-5-(4-methylsulfonylphenyl)-6-(4-fluorophenyl)-3(2H)-pyridazinone] | 740 | 8 |  |  | 
CCCCCn1nc(-c2ccc(F)cc2)c(-c2ccc(S(C)(=O)=O)cc2)cc1=O [Example 14, 2-(n-Pentyl)-5-(4-methylsulfonylphenyl)-6-(4-fluorophenyl)-3(2H)-pyridazinone] |  | 23 |  | 66 | inhibition at 1 µM ([1]; U-937, at 1 µM, read-out: U937 percent inhibition): 42%; Wish Cox-2 percent inhibition ([5]; at 0.00001 (head:)): 34 @ 0.00001%
CS(=O)(=O)c1ccc(-c2cc(=O)n(CC3CCCCC3)nc2-c2ccc(F)cc2)cc1 [Example 15, 2-Cyclohexylmethyl-5-(4-methylsulfonylphenyl)-6-(4-fluorophenyl)-3(2H)-pyridazinone] | 5 | 52 |  |  | inhibition at 0.01 µM ([1]; U-937, at 0.01 µM, read-out: U937 percent inhibition): 33%; Wish Cox-2 percent inhibition ([5]; at 0.001 (head:)): 43 @ 0.001%
CS(=O)(=O)c1ccc(-c2cc(=O)n(C3CCCCC3)nc2-c2ccc(F)cc2)cc1 [Example 18, 2-Cyclohexyl-5-(4-methylsulfonylphenyl)-6-(4-fluorophenyl)-3(2H)-pyridazinone] |  | 16 |  | 49 | 
CC#CCn1nc(-c2ccc(F)cc2)c(-c2ccc(S(C)(=O)=O)cc2)cc1=O [Example 19, 2-(2-Butyn-1-yl)-5-(4-methylsulfonylphenyl)-6-(4-fluorophenyl)-3(2H)-pyridazinone] |  | 3 |  |  | inhibition at 1 µM [3]: 66%
CS(=O)(=O)c1ccc(-c2cc(=O)n(CC3CC3)nc2-c2ccc(F)cc2)cc1 [Example 23, 2-(Cyclopropylmethyl)-5-(4-methylsulfonylphenyl)-6-(4-fluorophenyl)-3(2H)-pyridazinone] | 250 | 24 | 30 |  | CIP Inh @10mpk [2]: 41%; Wish Cox-2 percent inhibition [5]: 62 @ 1%
CS(=O)(=O)c1ccc(-c2cc(=O)n(CC3CCCC3)nc2-c2ccc(F)cc2)cc1 [Example 24, 2-Cyclopentylmethyl-5-(4-methylsulfonylphenyl)-6-(4-fluorophenyl)-3(2H)-pyridazinone] |  | 23 |  | 87 | 

More lines, main results first:

IC50 [3] [nM] | inhibition at 100 µM [4] [%] | inhibition at 10 µM [1, 6] [%] | inhibition at 0.1 µM [3] [%] | SMILES | also measured
20 | 4 |  |  | CS(=O)(=O)c1ccc(-c2cc(=O)n(Cc3ccccc3)nc2-c2ccc(F)cc2)cc1 [Example 7, 2-Benzyl-5-(4-methylsulfonylphenyl)-6-(4-fluorophenyl)-3(2H)-pyridazinone] | IC50 ([1]; read-out: U937 IC50 (parenthetical values)): 870 nM; CIP Inh @10mpk [2]: 22%
 | 2 | 62 | 65 | CS(=O)(=O)c1ccc(-c2cc(=O)n(Cc3ccc(F)cc3)nc2-c2ccc(F)cc2)cc1 [Example 10, 2-(4-Fluorobenzyl)-5-(4-methylsulfonylphenyl)-6-(4-fluorophenyl)-3(2H)-pyridazinone] | 
850 | 0 | 41 |  | C#CCn1nc(-c2ccc(F)cc2)c(-c2ccc(S(C)(=O)=O)cc2)cc1=O [Example 17, 2-Propargyl-5-(4-methylsulfonylphenyl)-6-(4-fluorophenyl)-3(2H)-pyridazinone] | Wish Cox-2 percent inhibition [5]: 54 @ 1%
 |  | 60 |  | CS(=O)(=O)c1ccc(-c2cc(=O)n(CC3CCC3)nc2-c2ccc(F)cc2)cc1 [Example 20, 2-(Cyclobutylmethyl)-5-(4-methylsulfonylphenyl)-6-(4-fluorophenyl)-3(2H)-pyridazinone] | 
 | 62 | 80 | 92 | CC(C)=CCn1nc(-c2ccc(F)cc2)c(-c2ccc(S(C)(=O)=O)cc2)cc1=O [Example 21, 2-(3-Methylbuten-2-yl)-5-(4-methylsulfonylphenyl)-6-(4-fluorophenyl)-3(2H)-pyridazinone] | 
 | 0 |  |  | CS(=O)(=O)c1ccc(-c2cc(=O)n(CC(F)(F)F)nc2-c2ccc(F)cc2)cc1 [Example 22, 2-(2,2,2-Trifluoroethyl)-5-(4-methylsulfonylphenyl)-6-(4-fluorophenyl)-3(2H)-pyridazinone] | inhibition at 1 µM [3]: 46%
 | 7 |  | 42 | CS(=O)(=O)c1ccc(-c2cc(=O)n(C3CCCC3)nc2-c2ccc(F)cc2)cc1 [Example 25, 2-Cyclopentyl-5-(4-methylsulfonylphenyl)-6-(4-fluorophenyl)-3(2H)-pyridazinone] | 
